The text below walks through data of patent publication US9670210B2, “Cyclopropylamines as LSD1 inhibitors” (Incyte Corporation, priority 2014, dated 2017).

Molecules are shown by their SMILES. Where only a bound is given, the exact number is not on record here.

This assay concerns the target LSD-1 enzyme (Homo sapiens (Human), UniProt O60341).

Method: LSD1 Histone Demethylase Biochemical Assay
LANCE LSD1/KDM1A demethylase assay-10 μL of 1 nM LSD-1 enzyme (ENZO BML-SE544-0050) in the assay buffer (50 mM Tris, pH 7.5, 0.01% Tween-20, 25 mM NaCl, 5 mM DTT) were preincubated for 1 hour at 25° C. with 0.8 μL compound/DMSO dotted in black 384 well polystyrene plates. […] After stopping the reactions plates were incubated for 30 minutes and read on a PHERAstar FS plate reader (BMG Labtech).

With `CC1(CN[C@@H]2C[C@H]2c2ccccc2)CCN(C(=O)C2(N)CCCC2)CC1` [Example 51, 1-{[4-methyl-4-({[(1R,2S)-2-phenylcyclopropyl]amino}methyl)piperidin-1-yl]carbonyl}cyclopentanamine], the concentration for half-maximal inhibition (IC50) was less than 100 nM.

Compound `O=C(N1CCC2(CC1)CNc1ccc(F)cc12)N1CC(CN[C@@H]2C[C@H]2c2ccccc2)C1` (relative stereo) [Example 18, N-({1-[(5-Fluoro-1,2-dihydro-spiro[indole-3,4′-piperidin]-1′-yl)carbonyl]azetidin-3-yl}methyl)-trans-2-phenylcyclopropanamine] returned an IC50 of less than 100 nM.

The compound `COCC1(CN[C@@H]2C[C@H]2c2ccccc2F)CCN(CC2(C(=O)O)CCC2)CC1` [Example 64, 1-{[4-({[(1R,2S)-2-(2-fluorophenyl)cyclopropyl]amino}methyl)-4-(methoxymethyl)piperidin-1-yl]methyl}cyclobutanecarboxylic acid] displayed an IC50 of less than 100 nM.

For `O=C(O)C1(CN2CCC(CN[C@@H]3C[C@H]3c3ccccc3)(COc3cccc(F)c3)CC2)CC1` [Example 77, 1-{[4-[(3-fluorophenoxy)methyl]-4-({[(1R,2S)-2-phenylcyclopropyl]amino}methyl)piperidin-1-yl]methyl}cyclopropanecarboxylic acid], the IC50 was less than 100 nM.

Consider `Cn1ccc(C(=O)N2CCC(C)(CN[C@@H]3C[C@H]3c3ccccc3)CC2)n1` [Example 46, (1R,2S)—N-({4-methyl-1-[(1-methyl-1H-pyrazol-3-yl)carbonyl]piperidin-4-yl}methyl)-2-phenylcyclopropanamine], for which the IC50 was less than 100 nM.

Regarding `COCC1(CN[C@@H]2C[C@H]2c2ccccc2)CCN(S(=O)(=O)c2ccn(C)n2)CC1` [Example 116, (1R,2S)—N-({4-(methoxymethyl)-1-[(1-methyl-1H-pyrazol-3-yl)sulfonyl]piperidin-4-yl}methyl)-2-phenylcyclopropanamine], the concentration for half-maximal inhibition (IC50) was less than 100 nM.

For the compound `COC1CCCN(C(=O)N2CC(CNC3CC3c3ccccc3)C2)C1` (stereo not drawn) [Example 15, N-({1-[(3-Methoxypiperidin-1-yl)carbonyl]azetidin-3-yl}methyl)-trans-2-phenylcyclopropanamine], the half-inhibitory concentration (IC50) was less than 100 nM.

The compound `O=C(O)C1(CN2CCC(CN[C@@H]3C[C@H]3c3ccccc3)(COc3ccc(F)cn3)CC2)CC1` [Example 87, 1-{[4-{[(5-fluoropyridin-2-yl)oxy]methyl}-4-({[(1R,2S)-2-phenylcyclopropyl]amino}methyl)piperidin-1-yl]methyl}cyclopropanecarboxylic acid] had a 50% inhibitory concentration (IC50) of less than 100 nM.

Regarding `N#CCC1(CN[C@@H]2C[C@H]2c2ccccc2)CCN(C(=O)c2cccc(F)c2)CC1` (relative stereo) [Example 8, (1-(3-Fluorobenzoyl)-4-{[(trans-2-phenylcyclopropyl)amino]methyl}piperidin-4-yl)acetonitrile], the IC50 is less than 100 nM.

In the case of `COCC1(C(C)N[C@@H]2C[C@H]2c2ccccc2)CCN(CC2(C(=O)O)CCC2)CC1` (stereo partly drawn) [Example 68, 1-{[4-(methoxymethyl)-4-(1-{[(1R,2S)-2-phenylcyclopropyl]amino}ethyl)piperidin-1-yl]methyl}cyclobutanecarboxylic acid], the IC50 was less than 100 nM.

In the case of `N#Cc1cccc(OCC2(CN[C@@H]3C[C@H]3c3ccccc3)CCN(CC3(C(=O)O)CCC3)CC2)c1` [Example 84, 1-{[4-[(3-cyanophenoxy)methyl]-4-({[(1R,2S)-2-phenylcyclopropyl]amino}methyl)piperidin-1-yl]methyl}cyclobutanecarboxylic acid], the 50% inhibitory concentration (IC50) was less than 100 nM.

`N#Cc1cccc(CC2(CN[C@@H]3C[C@H]3c3ccccc3)CCN(CC3(C(=O)O)CC3)CC2)c1` [Example 56, 1-{[4-(3-cyanobenzyl)-4-({[(1R,2S)-2-phenylcyclopropyl]amino}methyl)piperidin-1-yl]methyl}cyclopropanecarboxylic acid] registered a half-maximal inhibitory concentration (IC50) of less than 100 nM.

In the case of `COCC1(CN[C@@H]2C[C@H]2c2ccccc2)CCN(C(=O)N2CC[C@H](O)C2)CC1` [Example 61, (3S)-1-{[4-(methoxymethyl)-4-({[(1R,2S)-2-phenylcyclopropyl]amino}methyl)piperidin-1-yl]carbonyl}pyrrolidin-3-ol], the IC50 is less than 100 nM.

In turn, `O=C(O)C1(CN2CCC(CN[C@@H]3C[C@H]3c3ccccc3)(Cc3ccc(F)cn3)CC2)CC1` [Example 96, 1-{[4-[(5-fluoropyridin-2-yl)methyl]-4-({[(1R,2S)-2-phenylcyclopropyl]amino}methyl)piperidin-1-yl]methyl}cyclopropanecarboxylic acid] came in with an IC50 of less than 100 nM.

The compound `CC1(CN[C@@H]2C[C@H]2c2ccccc2)CCN(CC2(C(=O)O)CCC2)CC1` [Example 45, 1-{[4-methyl-4-({[(1R,2S)-2-phenylcyclopropyl]amino}methyl)piperidin-1-yl]methyl}cyclobutanecarboxylic acid] had an IC50 of less than 100 nM.

`Fc1ccc(CN2CCC(N[C@@H]3C[C@H]3c3ccccc3)CC2)cc1` (relative stereo) [Example 5, 1-(4-Fluorobenzyl)-N-(trans-2-phenylcyclopropyl)piperidin-4-amine] showed an IC50 of less than 100 nM.

As for `O=C(Nc1ccc(F)cc1)N1CC(CN[C@@H]2C[C@H]2c2ccccc2)C1` (relative stereo) [Example 21, N-(4-Fluorophenyl)-3-{[(trans-2-phenylcyclopropyl)amino]methyl}azetidine-1-carboxamide], the 50% inhibitory concentration (IC50) was less than 100 nM.

The compound `COCC1(CN[C@@H]2C[C@H]2c2ccccc2)CCN(C(=O)c2cnn(CCO)c2)CC1` [Example 103, 2-(4-{[4-(methoxymethyl)-4-({[(1R,2S)-2-phenylcyclopropyl]amino}methyl)piperidin-1-yl]carbonyl}-1H-pyrazol-1-yl)ethanol] yielded a half-maximal inhibitory concentration (IC50) of less than 100 nM.

In turn, `O=C(Nc1cccc(F)c1)N1CC(CN[C@@H]2C[C@H]2c2ccccc2)C1` (relative stereo) [Example 20, N-(3-Fluorophenyl)-3-{[(trans-2-phenylcyclopropyl)amino]methyl}azetidine-1-carboxamide] yielded a half-inhibitory concentration (IC50) of less than 100 nM.

`O=C(N1CCC(C(F)(F)F)CC1)N1CC(CN[C@@H]2C[C@H]2c2ccccc2)C1` (relative stereo) [Example 13, Trans-2-phenyl-N-[(1-{[4-(trifluoromethyl)piperidin-1-yl]carbonyl}azetidin-3-yl)methyl]cyclopropanamine] showed an IC50 of less than 100 nM.

Compound `CC1(CN[C@@H]2C[C@H]2c2ccccc2)CCN(CC2(C(=O)O)CC2)CC1` [Example 44, 1-{[4-methyl-4-({[(1R,2S)-2-phenylcyclopropyl]amino}methyl)piperidin-1-yl]methyl}cyclopropanecarboxylic acid] displayed a half-inhibitory concentration (IC50) of less than 100 nM.

As to `N[C@H]1CC[C@H](C(=O)N2CCC(CN[C@@H]3C[C@H]3c3ccccc3)(Cc3ccc(F)cc3)CC2)CC1` [Example 33, trans-4-{[4-(4-fluorobenzyl)-4-({[(1R,2S)-2-phenylcyclopropyl]amino}methyl)piperidin-1-yl]carbonyl}cyclohexanamine], the IC50 is less than 100 nM.

`N#Cc1cccc(CN2CC(CN[C@@H]3C[C@H]3c3ccccc3)C2)c1` (relative stereo) [Example 7, 3-[(3-{[(trans-2-Phenylcyclopropyl)amino]methyl}azetidin-1-yl)methyl]benzonitrile]: the IC50 is less than 100 nM.

As to `O=C(N1CC(CNC2CC2c2ccccc2)C1)N1CCC[C@]2(CCN(C3CCC(O)CC3)C2=O)C1` (stereo partly drawn) [Example 11, (5S)-2-(cis-4-Hydroxycyclohexyl)-7-[(3-{[(trans-2-phenylcyclopropyl)amino]methyl}azetidin-1-yl)carbonyl]-2,7-diazaspiro[4.5]decan-1-one], the 50% inhibitory concentration (IC50) is less than 100 nM.

Regarding `N#CC1(c2ccccc2)CCN(C(=O)N2CC(CN[C@@H]3C[C@H]3c3ccccc3)C2)CC1` (relative stereo) [Example 16, 4-Phenyl-1-[(3-{[(trans-2-phenylcyclopropyl)amino]methyl}azetidin-1-yl)carbonyl]piperidine-4-carbonitrile], the IC50 is less than 100 nM.

For `N#Cc1ccc(OCC2(CN[C@@H]3C[C@H]3c3ccccc3)CCN(CC3(C(=O)O)CCC3)CC2)cc1` [Example 85, 1-{[4-[(4-cyanophenoxy)methyl]-4-({[(1R,2S)-2-phenylcyclopropyl]amino}methyl)piperidin-1-yl]methyl}cyclobutanecarboxylic acid], the IC50 is less than 100 nM.

As to `COc1ccc(NC(=O)N2CC(CN[C@@H]3C[C@H]3c3ccccc3)C2)cc1` (relative stereo) [Example 22, N-(4-Methoxyphenyl)-3-{[(trans-2-phenylcyclopropyl)amino]methyl}azetidine-1-carboxamide], the IC50 was less than 100 nM.

Compound `COCC1(CN[C@@H]2C[C@H]2c2ccccc2)CCN(C(=O)N2CCC(OC)CC2)CC1` [Example 113, (1R,2S)—N-({4-(methoxymethyl)-1-[(4-methoxypiperidin-1-yl)carbonyl]piperidin-4-yl}methyl)-2-phenylcyclopropanamine] registered a half-inhibitory concentration (IC50) of less than 100 nM.

`N#Cc1ccc(OCC2(CN[C@@H]3C[C@H]3c3ccccc3)CCN(CC3(C(=O)O)CCC3)CC2)c(F)c1` [Example 86, 1-{[4-[(4-cyano-2-fluorophenoxy)methyl]-4-({[(1R,2S)-2-phenylcyclopropyl]amino}methyl)piperidin-1-yl]methyl}cyclobutanecarboxylic acid] showed a 50% inhibitory concentration (IC50) of less than 100 nM.

With `O=C(O)C1(CN2CCC(CN[C@@H]3C[C@H]3c3ccccc3)(Cc3ccc(F)cn3)CC2)CCC1` [Example 97, 1-{[4-[(5-fluoropyridin-2-yl)methyl]-4-({[(1R,2S)-2-phenylcyclopropyl]amino}methyl)piperidin-1-yl]methyl}cyclobutanecarboxylic acid], the half-inhibitory concentration (IC50) is less than 100 nM.

As to `COc1ccc(CC2(CN[C@@H]3C[C@H]3c3ccccc3)CCN(CC3(C(=O)O)CCC3)CC2)cc1` [Example 99, 1-{[4-(4-methoxybenzyl)-4-({[(1R,2S)-2-phenylcyclopropyl]amino}methyl)piperidin-1-yl]methyl}cyclobutanecarboxylic acid], the IC50 was less than 100 nM.
